Patent US11414387B2, “Oxoacridinyl acetic acid derivatives and methods of use” (Stingthera, Inc., priority 2017, dated 2022)

Key:
hSTING-CTD = hSTING-CTD (Homo sapiens (Human), UniProt Q86WV6); experiment: Human STING protein FP competition concentration response assay; type: binding
Experimental: A validated STING ligand, such as c-di-GMP, which is labeled with a read-out signal (e.g., a fluorescence signal such as fluorescein), is mixed with STING-CTD (e.g., mouse STING-CTD or human STING-CTD) with or without the presence of a compound of the present application. Changes in the read-out signal are measured (e.g., by fluorescence anisotropy) to determine the binding of the compound to STING-CTD.
Fluorescein labeled c-di-GMP, a validated STING ligand, was mixed with recombinant hSTING-CTD in a homogenous assay format with or without the presence of a compound of the present application (titrated) in PBS in black 384-well plates (10 μL per well). The fluorescence anisotropy was determined on a PerkinElmer EnVisions multi-mode plate reader. The plate can be read immediately after mixing the reagents or after a few hours without change of signals.
• 1) hSTING (Supplier: HDB) • 2) 2′-Fluo-AHC-c-di GMP (BIOLOG #F009) • 3) 2′3′-cGAMP (BIOLOG #C161) • 4) DMXAA (InvivoGen #tlrl-dmx) • 5) DMSO (Sigma, #D5879-100 mL) • 6) 10×PBS(HDB #MCP-020) • 7) Assay plate, 384-well black plate, solid black bottom (Greiner #784076) • 8) Compound dilution intermediate plate, 384 LDV plate (Labcyte #LP-0200) • 9) Liquid handler, ECHO550 (Labcyte) • 10) Liquid handler, Bravo (Aglient) • 11) Reader, Envision (PerkinElmer) • 12) Centrifuge (Eppendorf) • 13) Multichannel Pipette (Raining) • 14) 10 ml Reservoir (Corning) • 15) 15 ml centrifuge tube (Corning) • 16) Adhesive Plate seals (BioRad) Compound Preparation • a) Containers of each compound were centrifuged at 1000 rpm for 5 min. • b) Compounds were dissolved in DMSO at 30 mM. • c) Compounds were sufficiently vortexed, and centrifuged at 1000 rpm for 1 min. • d) 16 uL of the compound solution was transferred into a LDV Compound Plate. • e) 2-fold serial dilutions of the compound solution were made with DMSO, and 14 concentrations were made in the 384-well LDV Compound Plate. • f) The LDV plate was spun at 1000 rpm for 60 sec and sealed with foil (stored at −20° C. if not used immediately). • g) 335 nL of each compound from the LDV Compound Plate was transferred to Assay Plate (ECHO550). Probe Preparation • a) 200 uM probe stock (2′-Fluo-AHC-c-diGMP) was diluted by ddH2O to 6 uM working concentration. • b) 10-12 uL 6 uM working solution of probe was transferred into the LDV plate. • c) 50 nL per well 6 uM working solution of probe was transferred from the LDV plate to each well of the empty Assay Plate (Greiner 784076) by ECHO550 Buffer mode. • d) Probe final concentration was 30 nM when assay system was 10 uL. • e) The Assay Plate was spun at 1000 rpm for 1 min. Compound Addition • a) After the LDV Compound Plate was prepared, 335 nL compound (ECHO550 DMSO mode) was transferred from the LDV Compound Plate into the Assay Plate (Greiner 784076) containing 50 nL probe in each well according to the Assay Plate layout. • b) DMSO final concentration was 3.35% when assay system was 10 uL. • c) The Assay Plate was spun at 1000 rpm for 1 min. Protein Addition • a) Aliquot of hSTING protein was thawed on ice, briefly to generate uniform solution. • b) 55 uM stock protein was diluted in 1×PBS assay buffer to generate 10 uM final solutions. • c) For test compound and ZPE wells, 10 μL per well of 10 uM protein solutions was added into the Assay Plate containing both the probe and test compounds or DMSO using multichannel pipette. • d) For HPE wells, 10 μL/well of 1×PBS assay buffer instead of protein was added into the Assay Plate containing both the probe and DMSO using multichannel pipette. • e) The Assay Plate was spun at 1000 rpm for Imin. • f) The Assay Plate was incubated at r.t. for 10-20 min.
The EnVision plate reader was used to record the FA value of each well immediately after mixing the reagents or after a few hours without change of signals.
The raw data and calculated data (Fluorescence anisotropy (FA)) was exported from the EnVision reader. […]

hSTING-WT = hSTING-WT (Homo sapiens (Human), UniProt Q86WV6, H232R); experiment: Radiometric filtration binding competition assay, hSTING-WT
mSTING-R232 = mSTING-R232 (Mus musculus, UniProt Q3TBT3); experiment: STING differential scanning fluorimetry (DSF) assay, mouse STING; conditions: net shift in melting temperature
Experimental: A STING DSF assay was performed to determine protein thermostability shift in response to small molecule ligand binding. A STING thermostability shift assay based on differential scanning fluorimetry was used to measure (1) the net shift in melting temperature (ΔTm)between the apo and ligand-bound states of the STING protein and (2) the concentration of the thermal denaturation transition (EC50) as a surrogate measure of binding affinity (K). […] Protein in assay buffer was transferred to a 384 well plate and incubated with the hydrophobic fluorescent dye SYBR Orange. A temperature ramp was applied to the plate and the resulting dye fluorescence was plotted as a function of temperature. The first derivative of this function (dF/dT) was then used to extrapolate the melting temperature of the protein at various concentrations of compound and determine the thermal denaturation profile of a protein/compound complex.
• 1. Protein construct (affinity tag removal vs SUMO-fusion construct) • 2. Protein concentration • 3. Dye concentration • 4. Buffer • 5. Thermal ramp velocity • 6. DMSO tolerance • 7. Compound titration parameters • 8. […] 5 μM purified Target STING Protein • 3. 8 μM Sypro Orange Dye • 4. Buffer: 100 mM NaCl, 30 mM HEPES, pH 7.5 • 5. Thermal Ramp: 0.5° C./min • 6. <1% DMSO • 7. 11 point, 2 fold dilution, duplicate, 300 μM high concentrations • 8.

hSTING-R232 = hSTING-R232 (Homo sapiens (Human), UniProt Q86WV6, H232R); experiment: STING differential scanning fluorimetry (DSF) assay, WT human STING; conditions: WT (R232) human STING aa140-379, net shift in melting temperature
STING protein = STING protein (Homo sapiens (Human), UniProt Q86WV6, H232R); experiment: Cell based reporter assay of IRF activation (IRF-luciferase), THP1-dual-KI R232; conditions: read-out: THP1-dual-KI R232_IRF(Luciferase)_Activity Maximum measured (%)
Chain of STING protein (Q86WV6 whole entry H232R): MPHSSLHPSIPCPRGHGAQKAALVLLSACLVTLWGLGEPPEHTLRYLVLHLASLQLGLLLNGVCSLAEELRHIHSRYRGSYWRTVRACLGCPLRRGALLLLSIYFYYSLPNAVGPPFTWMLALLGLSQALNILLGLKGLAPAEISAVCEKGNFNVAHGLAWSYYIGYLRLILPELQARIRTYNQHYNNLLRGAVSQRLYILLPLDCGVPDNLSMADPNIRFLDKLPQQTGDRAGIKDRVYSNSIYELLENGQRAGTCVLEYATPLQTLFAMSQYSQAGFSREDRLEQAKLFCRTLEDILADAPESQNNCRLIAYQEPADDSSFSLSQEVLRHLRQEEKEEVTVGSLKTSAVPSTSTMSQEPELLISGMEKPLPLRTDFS
Description: Briefly, THP-1 monocytes were transfected and selected for stable integration of 2 reporter constructs. Clones incorporating stably integrated vectors were further selected by antibiotic resistance to blastocidin and zeocin. The reporter constructs included: (1) firefly luciferase reporter gene under the control of an ISG54 promoter fused to five interferon (IFN)-stimulated response elements to measure IRF transcription factor binding activity and (2) secreted embryonic alkaline phosphatase reporter gene under transcription control of an IFN-beta minimal promoter fused to 5 copies of the NFkB consensus transcriptional response element and 3 copies of the c-Rel binding site.
The resulting THP-1 cell line was further modified to incorporate 3 amino acid point mutations (H71R A230G Q293R). This modification of the native TMEM173 gene in THP-1 cells (HAQ) was designed to produce a cell reporter that expressed the most common allelic variant in the human population (THP-1 R232, available from InvivoGen). Alternatively, the TMEM173 gene was knocked out to provide a congenic control to counter-screen for compound activation that was independent of the STING protein (THP-1 STING KO).
Once cell lines were established, reporter assay protocols were developed and optimized to screen small molecule compounds for agonist activity. Assay optimization for efficacy and Z′ value included titration of the following parameters:
• 1. Cell pre-activation with PMA • 2. Cell seeding density • 3. DMSO tolerance • 4. Media selection • 5. FBS concentration • 6. Incubation time • 7. Co-Assessment of cell viability by CTG assay • 8. Appropriate HPE and ZPE controls • 9. Dose Response Titration Final Assay SOP Conditions • 1. No pre-activation with PMA • 2. 5×10^4 cells/well in 96 well plate format • 3. <0.5% DMSO • 4. […] 10% FBS • 6. 14-18 hr incubation • 7. Cell Titer Glo reagent (Promega) following supernatant removal • 8.

Chain of hSTING-CTD (Q86WV6 135-379): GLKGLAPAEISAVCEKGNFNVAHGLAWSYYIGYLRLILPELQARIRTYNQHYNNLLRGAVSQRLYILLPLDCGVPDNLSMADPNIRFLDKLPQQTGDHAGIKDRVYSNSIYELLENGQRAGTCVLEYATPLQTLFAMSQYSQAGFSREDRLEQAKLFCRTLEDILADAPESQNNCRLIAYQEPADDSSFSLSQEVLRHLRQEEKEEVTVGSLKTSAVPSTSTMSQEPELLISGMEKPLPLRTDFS
Chain of hSTING-R232 (Q86WV6 140-379 H232R): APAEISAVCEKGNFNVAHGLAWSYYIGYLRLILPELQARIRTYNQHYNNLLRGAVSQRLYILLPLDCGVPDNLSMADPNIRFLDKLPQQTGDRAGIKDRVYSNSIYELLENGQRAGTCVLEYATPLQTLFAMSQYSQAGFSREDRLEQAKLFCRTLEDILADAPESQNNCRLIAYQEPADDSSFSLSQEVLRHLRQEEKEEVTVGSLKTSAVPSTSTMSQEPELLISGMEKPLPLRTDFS
Chain of hSTING-WT (Q86WV6 140-379 H232R): as above

IC50 (hSTING-CTD) | Compound | other results
< 100 µM | O=C(O)Cn1c2ccc(-c3ccccc3)cc2c(=O)c2ccc(Cl)c(Cl)c21 [Compound 125] | IC50 (hSTING-WT): 20 to 100 µM; MOUSE DSF_6xHIS-SUMO Tm Shift (° C.) (mSTING-R232): B (“B” = 0-5° C.); WT_DSF_hSWAT Tm Shift (° C.) (hSTING-R232): C (“C” = 2-7° C,); Emax (STING protein): < 5%
< 100 µM | COCc1c(Cl)ccc2c(=O)c3ccccc3n(CC(=O)O)c12 [Compound 229] | IC50 (hSTING-WT): > 300 µM; WT_DSF_hSWAT Tm Shift (° C.) (hSTING-R232): B (“B” = 0-2° C.); Emax (STING protein): < 5%
100 to 500 µM | CC(C)c1ccc(-c2cccc3c2c(=O)c2ccc(Cl)c(Cl)c2n3CC(=O)O)cc1 [Compound 54] | 
500 to 1000 µM | CC(C)c1cccc2c1c(=O)c1ccc(Cl)c(Cl)c1n2CC(=O)O [Compound 55] | 
> 1000 µM | O=C(O)Cn1c2ccccc2c(=O)c2ccc(Cl)c(F)c21 [Compound 84] | 
500 to 1000 µM | O=C(O)Cn1c2ccccc2c(=O)c2c(Cl)ccc(Cl)c21 [Compound 56] | 
500 to 1000 µM | Cc1cc2c(=O)c3ccc(Cl)c(Cl)c3n(CC(=O)O)c2cc1F [Compound 93] | 
100 to 500 µM | O=C(O)Cn1c2cc(Br)ccc2c(=O)c2ccc(Cl)c(Cl)c21 [Compound 79] | 
< 100 µM | CC(C)c1ccc(-c2ccc3c(=O)c4ccc(Cl)c(Cl)c4n(CC(=O)O)c3c2)cc1 [Compound 91] | 
< 100 µM | O=C(O)Cn1c2cc(C3=CCCC3)ccc2c(=O)c2ccc(Cl)c(Cl)c21 [Compound 114] | 
100 to 500 µM | O=C(O)Cn1c2ccc(Br)cc2c(=O)c2ccc(Cl)c(Cl)c21 [Compound 89] | 
500 to 1000 µM | Cc1ccc2c(c1)c(=O)c1ccc(Cl)c(Cl)c1n2CC(=O)O [Compound 121] | 
< 100 µM | CC(C)Nc1ccc2c(=O)c3ccc(Cl)c(Cl)c3n(CC(=O)O)c2c1 [Compound 119] | 
100 to 500 µM | O=C(O)Cn1c2ccccc2c(=O)c2ccc(Br)c(Cl)c21 [Compound 52] | 
100 to 500 µM | Cc1cc2c(=O)c3ccc(Cl)c(Cl)c3n(CC(=O)O)c2cc1N(C)C [Compound 64] | 
< 100 µM | O=C(O)Cn1c2cc(-c3ccccc3)ccc2c(=O)c2ccc(Cl)c(Cl)c21 [Compound 65] | 
100 to 500 µM | O=C(O)Cn1c2ccccc2c(=O)c2ccc(Cl)c(Br)c21 [Compound 51] | 
500 to 1000 µM | O=C(O)Cn1c2cccc(F)c2c(=O)c2ccc(Cl)c(Cl)c21 [Compound 31] | 
< 100 µM | CC(C)c1ccc(-c2ccc3c(c2)c(=O)c2ccc(Cl)c(Cl)c2n3CC(=O)O)cc1 [Compound 72] | 

Second part, the compound before the results:

Compound | IC50 (hSTING-CTD) | other results
Cc1ccc2c(=O)c3ccc(Cl)c(Br)c3n(CC(=O)O)c2c1 [Compound 112] | < 100 µM | IC50 (hSTING-WT): 20 to 100 µM; MOUSE DSF_6xHIS-SUMO Tm Shift (° C.) (mSTING-R232): C (“C” = 5-15° C.); WT_DSF_hSWAT Tm Shift (° C.) (hSTING-R232): B (“B” = 0-2° C.); Emax (STING protein): 5 to 25%
Cc1cc2c(=O)c3ccc(Cl)c(Cl)c3n(CC(=O)O)c2cc1N1CCCCC1 [Compound 62] | > 1000 µM | 
COc1c(Cl)ccc2c(=O)c3ccc(C4CCNCC4)cc3n(CC(=O)O)c12 [Compound 226] | > 1000 µM | IC50 (hSTING-WT): 100 to 300 µM; WT_DSF_hSWAT Tm Shift (° C.) (hSTING-R232): C (“C” = 2-7° C,)
Cc1cc2c(=O)c3ccc(Cl)c(Cl)c3n(CC(=O)O)c2cc1N1CCOCC1 [Compound 63] | 100 to 500 µM | 
CC(C)c1ccc(-c2ccc3c(c2)c(=O)c2ccccc2n3CC(=O)O)cc1 [Compound 41] | < 100 µM | 
O=C(O)Cn1c2ccccc2c(=O)c2cc(Cl)cc(Cl)c21 [Compound 58] | > 1000 µM | 
O=C(O)Cn1c2cc(NC3CCCCCC3)ccc2c(=O)c2ccc(Cl)c(Cl)c21 [Compound 122] | < 100 µM | IC50 (hSTING-WT): 20 to 100 µM; MOUSE DSF_6xHIS-SUMO Tm Shift (° C.) (mSTING-R232): D (“D” > 15° C.); WT_DSF_hSWAT Tm Shift (° C.) (hSTING-R232): C (“C” = 2-7° C,); Emax (STING protein): > 50%
O=C(O)Cn1c2ccccc2c(=O)c2cc(Cl)c(Cl)cc21 [Compound 57] | > 1000 µM | 
O=C(O)Cn1c2ccccc2c(=O)c2cc(CCC3CCCCC3)ccc21 [Compound 40] | < 100 µM | 
O=C(O)Cn1c2cc(NC3CCCC3)ccc2c(=O)c2ccc(Cl)c(Cl)c21 [Compound 118] | < 100 µM | 
CC(C)(C)c1ccc2c(=O)c3ccc(Cl)c(OC4CCC4)c3n(CC(=O)O)c2c1 [Compound 228] | > 1000 µM | IC50 (hSTING-WT): 20 to 100 µM; WT_DSF_hSWAT Tm Shift (° C.) (hSTING-R232): C (“C” = 2-7° C,); Emax (STING protein): < 5%
Cc1ccccc1CCc1ccc2c(c1)c(=O)c1ccccc1n2CC(=O)O [Compound 74] | 100 to 500 µM | 
O=C(O)Cn1c2ccccc2c(=O)c2cc(C#CC3CCCCC3)ccc21 [Compound 39] | 100 to 500 µM | 
CSc1ccc2c(=O)c3ccc(SC)c(Cl)c3n(CC(=O)O)c2c1 [Compound 46] | > 1000 µM | 
Cc1ccc2c(=O)c3cc(Br)ccc3n(CC(=O)O)c2c1 [Compound 78] | > 1000 µM | 
Cc1cc(Cl)c2c(c1)c(=O)c1ccc(C)cc1n2CC(=O)O [Compound 38] | 500 to 1000 µM | 
O=C(O)Cn1c2cc(C3=CCCCC3)ccc2c(=O)c2ccc(Cl)c(Cl)c21 [Compound 116] | < 100 µM | 
COc1cccc(CCc2ccc3c(c2)c(=O)c2ccccc2n3CC(=O)O)c1 [Compound 43] | 500 to 1000 µM | 
O=C(O)Cn1c2ccc(CCc3ccccc3)cc2c(=O)c2ccc(Cl)c(Cl)c21 [Compound 88] | 100 to 500 µM | 
CC1(C)c2ccccc2N(CC(=O)O)c2ccc(Br)cc21 [Compound 86] | 500 to 1000 µM | 
O=C(O)CN1c2ccccc2Cc2cc(CCC3CCCCC3)ccc21 [Compound 90] | 500 to 1000 µM | 
